Results on one molecule are retold here after patent US20210041443A1, “WNT6 AS GLIOBLASTOMA ONCOGENIC BIOMARKER, AND USES OF INHIBITORS THEREOF” (UNIVERSIDADE DO MINHO, priority 2018, published 2021).

Common to all, as to assay: Cell viability of GBM cells exposed to WNT974
Assay [1] relates to U87 cells (WNT6-negative GBM). It is filed as cell-based, human. On the procedure: (§1) FIG. 13. WNT6-positive GBM cell lines are more sensitive to WNT974 (an inhibitor of the WNT pathway) than a WNT6-negative GBM cell line. A. GBM cells positive to WNT6 (U373, […], and GL42) and negative to WNT6 (U87) were exposed to increasing doses of WNT974 (0, 10, 20, or 30 μM). The viability of U87 cells (WNT6-negative) was not affected by WNT inhibition, in contrast to WNT6-positive GBM cells (U373, SNB19, and GL42) that are highly-sensitive. B. Cells were exposed to increasing doses of WNT974 (0, 10, 20, or 30 μM) and to a fixed dose of TMZ (temozolomide, the gold standard chemotherapeutic drug used for GBM patients; U373: 400 μM; SNB19: 800 μM; GL42: 200 μM; U87: 800 μM).

In assay [2] the test system is SNB19 cells (WNT6-positive GBM). It is filed as cell-based, human. On the procedure: as §1
Assay [3] has as its system U373 cells (WNT6-positive GBM). It is filed as cell-based, human. On the procedure: as §1
The subject of assay [4] is GL42 cells (WNT6-positive GBM). It is filed as cell-based. On the procedure:
as §1

`Cc1cc(-c2ncc(CC(=O)Nc3ccc(-c4cnccn4)cn3)cc2C)ccn1` [WNT974]: the “cell viability, sensitivity to WNT inhibition” value in assay [1] (U87 (WNT6-negative), WNT974 0, 10, 20, or 30 μM) was “not affected”; in assay [2] (SNB19 (WNT6-positive), WNT974 0, 10, 20, or 30 μM) it was “highly-sensitive”; in assay [3] (U373 (WNT6-positive), WNT974 0, 10, 20, or 30 μM) it was “highly-sensitive”; in assay [4] (GL42 (WNT6-positive), WNT974 0, 10, 20, or 30 μM) it was “highly-sensitive”. The “cell viability, sensitivity to combinatorial therapy” value in assay [1] (U87, WNT974 0, 10, 20, or 30 μM plus fixed dose TMZ 800 μM) is “no effect”; in assay [2] (SNB19, WNT974 0, 10, 20, or 30 μM plus fixed dose TMZ 800 μM), “higher sensitivity”; in assay [3] (U373, WNT974 0, 10, 20, or 30 μM plus fixed dose TMZ 400 μM), “higher sensitivity”; in assay [4] (GL42, WNT974 0, 10, 20, or 30 μM plus fixed dose TMZ 200 μM), “higher sensitivity”.
